Laboratory results reported in patent US4101656A, “7β-Acylamino-3-(alkanesulfonamidoalkyl substituted tetrazolylthiomethyl) cephalosporins, antibacterial compositions containing them and methods of treating bacterial infections with them” (Smithkline Corporation, priority 1976, dated 1978).
≈ marks a conversion by molar mass, not a printed value. Like-named read-outs stand apart in the source and are kept apart here.

Assays:
S. aureus HH 127 = experiment: in vitro MIC testing, S. aureus HH 127; type: cell-based
Method: (§1) The compounds of Formula I have exceptional antibacterial activity against both Gram-positive and Gram-negative organisms. Minimum inhibitory concentrations (MIC's) range from 0.2 to >200 μg/ml in in vitro testing. Test results for the compound 7β-D-mandelamido-3-[1-(2-methanesulfonamidoethyl)tetrazol-5-ylthiomethyl]-3-cephem-4-carboxylic acid sodium salt hydrate (Compound A) are given below: […]

S. aureus SK 23390 = experiment: in vitro MIC testing, S. aureus SK 23390; type: cell-based
Method: as §1

Strep. faecalis HH 34358 = experiment: in vitro MIC testing, Strep. faecalis HH 34358; type: cell-based
Method: as §1

E. coli SK 12140 = experiment: in vitro MIC testing, E. coli SK 12140; type: cell-based; settings: Escherichia coli, SK12140
Method: as §1

E. coli HH 33779 = experiment: in vitro MIC testing, E. coli HH 33779; type: cell-based
Method: as §1

Kleb. pneumo. SK 4200 = experiment: in vitro MIC testing, Kleb. pneumo. SK 4200; type: cell-based
Method: as §1

Kleb. pneumo. SK 1200 = experiment: in vitro MIC testing, Kleb. pneumo. SK 1200; type: cell-based
Method: as §1

Salmonella ATCC 12176 = experiment: in vitro MIC testing, Salmonella ATCC 12176; type: cell-based; settings: ATCC12176, two values given
Method: as §1

Shigella HH 117 = experiment: in vitro MIC testing, Shigella HH 117; type: cell-based; settings: HH117
Method: as §1

Pseudo. aerug. HH 63 = experiment: in vitro MIC testing, Pseudo. aerug. HH 63; type: cell-based
Method: as §1

[1] = test system: Serratia marc. ATCC 13880; experiment: in vitro MIC testing, Serratia marc. ATCC 13880; type: cell-based; settings: ATCC13880, two values given
Method: as §1

Proteus morgani 179 = experiment: in vitro MIC testing, Proteus morgani 179; type: cell-based; settings: two values given
Method: as §1

Entero aerog. ATCC 13048 = experiment: in vitro MIC testing, Entero aerog. ATCC 13048; type: cell-based; settings: two values given
Method: as §1

Entero. cloacae HH 31254 = experiment: in vitro MIC testing, Entero. cloacae HH 31254; type: cell-based; settings: Enterobacter cloacae, HH31254
Method: as §1

Proteus mirabilis 444 = experiment: in vitro MIC testing, Proteus mirabilis 444; type: cell-based
Method: as §1

E. coli 12140 = experiment: in vivo mouse protection test, E. coli 12140
Method: (§2) 4200 upon subcutaneous injection; cefazolin gave results of 4 mg/kg against E. coli 12140 and 11.3 mg/kg against Kleb. pneumo. 4200 upon subcutaneous administration.

Kleb. pneumo. 4200 = experiment: in vivo mouse protection test, Kleb. pneumo. 4200; settings: sc
Method: as §2

[2] = two values given, sodium salt hydrate

**Q.** `Cc1nnc(SCC2=C(C(=O)O)N3C(=O)[C@@H](NC(=O)Cn4cnnn4)[C@H]3SC2)s1` [Cefazolin, reference compound] was tested. Which MIC (S. aureus HH 127; Staphylococcus aureus, HH127, two values given, read-out: MIC) did it give?
**A.** 0.4 µg/mL (≈ 0.88 µM)

**Q.** What about the MIC (S. aureus SK 23390; Staphylococcus aureus, SK23390, two values given, read-out: MIC) of the same molecule?
**A.** 0.2 µg/mL (≈ 0.44 µM)

**Q.** And the MIC (Strep. faecalis HH 34358; Enterococcus faecalis, HH34358, two values given, read-out: MIC)?
**A.** 6.3 µg/mL (≈ 13.9 µM)

**Q.** What about the MIC (E. coli SK 12140; E. coli SK 12140, two values given, read-out: MIC) of the same molecule?
**A.** 0.8 µg/mL (≈ 1.76 µM)

**Q.** What about the MIC (E. coli HH 33779; Escherichia coli, HH33779, two values given, read-out: MIC) of the same molecule?
**A.** 1.6 µg/mL (≈ 3.52 µM)

**Q.** What about the MIC (Kleb. pneumo. SK 4200; Kleb. pneumo. SK 4200, two values given, read-out: MIC) of the same molecule?
**A.** 1.6 µg/mL (≈ 3.52 µM)

**Q.** And the MIC (Kleb. pneumo. SK 1200; Kleb. pneumo. SK 1200, two values given, read-out: MIC)?
**A.** 0.8 µg/mL (≈ 1.76 µM)

**Q.** And the MIC (Salmonella ATCC 12176)?
**A.** 0.8 µg/mL (≈ 1.76 µM)

**Q.** What about the MIC (Shigella HH 117) of the same molecule?
**A.** 0.4 µg/mL (≈ 0.88 µM)

**Q.** What about the MIC (Pseudo. aerug. HH 63; Pseudo. aerug. HH 63, two values given, read-out: MIC) of the same molecule?
**A.** > 200 µg/mL

**Q.** What about the MIC [1] of the same molecule?
**A.** > 200 µg/mL

**Q.** And the MIC (Proteus morgani 179; read-out: MIC)?
**A.** 200 µg/mL (≈ 440 µM)

**Q.** And the MIC (Entero aerog. ATCC 13048; read-out: MIC)?
**A.** 1.6 µg/mL (≈ 3.52 µM)

**Q.** And the MIC (Entero. cloacae HH 31254; Entero. cloacae HH 31254, two values given, read-out: MIC)?
**A.** 0.8 µg/mL (≈ 1.76 µM)

**Q.** And the MIC (Proteus mirabilis 444; read-out: MIC)?
**A.** 3.1 µg/mL (≈ 6.82 µM)

**Q.** What about the ED50 (E. coli 12140; Escherichia coli, sc, mouse protection, E. coli 12140, subcutaneous, read-out: ED50) of the same molecule?
**A.** 4 mg/kg

**Q.** And the ED50 (Kleb. pneumo. 4200; mouse protection, Kleb. pneumo. 4200, subcutaneous, read-out: ED50)?
**A.** 11.3 mg/kg

**Q.** How did the MIC (S. aureus HH 127; Staphylococcus aureus, HH127, two values given) turn out when `CS(=O)(=O)NCCn1nnnc1SCC1=C(C(=O)[O-])N2C(=O)[C@@H](NC(=O)[C@H](O)c3ccccc3)[C@H]2SC1.O.[Na+]` [Compound A, 7β-D-mandelamido-3-[1-(2-methanesulfonamidoethyl)tetrazol-5-ylthiomethyl]-3-cephem-4-carboxylic acid sodium salt hydrate] was run?
**A.** 3.1 µg/mL

**Q.** What about the MIC (S. aureus HH 127; [2]) of the same molecule?
**A.** 1.6 µg/mL

**Q.** What about the MIC (S. aureus SK 23390; Staphylococcus aureus, SK23390, two values given) of the same molecule?
**A.** 0.8 µg/mL

**Q.** And the MIC (S. aureus SK 23390; [2])?
**A.** 0.4 µg/mL

**Q.** What about the MIC (Strep. faecalis HH 34358; Enterococcus faecalis, HH34358, two values given) of the same molecule?
**A.** 25 µg/mL

**Q.** What about the MIC (Strep. faecalis HH 34358; [2]) of the same molecule?
**A.** 12.5 µg/mL

**Q.** What about the MIC (E. coli SK 12140) of the same molecule?
**A.** 0.8 µg/mL

**Q.** And the MIC (E. coli HH 33779; Escherichia coli, HH33779, two values given)?
**A.** 1.6 µg/mL

**Q.** What about the MIC (E. coli HH 33779; [2]) of the same molecule?
**A.** 0.8 µg/mL

**Q.** What about the MIC (Kleb. pneumo. SK 4200) of the same molecule?
**A.** 0.4 µg/mL

**Q.** What about the MIC (Kleb. pneumo. SK 1200) of the same molecule?
**A.** 0.4 µg/mL

**Q.** And the MIC (Salmonella ATCC 12176)?
**A.** 0.4 µg/mL

**Q.** What about the MIC (Shigella HH 117) of the same molecule?
**A.** 0.2 µg/mL

**Q.** And the MIC (Pseudo. aerug. HH 63)?
**A.** > 200 µg/mL

**Q.** And the MIC (Proteus morgani 179)?
**A.** 1.6 µg/mL

**Q.** What about the MIC (Proteus morgani 179; sodium salt hydrate) of the same molecule?
**A.** 0.8 µg/mL

**Q.** And the MIC (Entero aerog. ATCC 13048)?
**A.** 1.6 µg/mL

**Q.** And the MIC (Entero aerog. ATCC 13048; sodium salt hydrate)?
**A.** 0.8 µg/mL

**Q.** What about the MIC (Entero. cloacae HH 31254) of the same molecule?
**A.** 0.8 µg/mL

**Q.** What about the MIC (Proteus mirabilis 444) of the same molecule?
**A.** 0.8 µg/mL

**Q.** What about the ED50 (E. coli 12140; Escherichia coli, 12140, sc) of the same molecule?
**A.** 0.39 mg/kg

**Q.** What about the ED50 (Kleb. pneumo. 4200; Mus musculus) of the same molecule?
**A.** 2.44 mg/kg
